Five compounds from ChEMBL document CHEMBL1201862, “PubChem BioAssay data set” (2004) can be followed below.

In test [1] the test system is A-375. Description: A375 melanoma cell viability reduction, dose response, counter-screen for MITF modulator project, cherry-pick samples, set 2 (AID 540335). The format is functional, cell-based. The settings on record: Homo sapiens. Background: A counterscreen serves to expose hits that act by an unwanted route or on another target.
Test [2] in a line: LGR2 antagonists, dose response, cell-based, HEK293, CRE-luciferase reporter, cherry pick, set 2 (AID 743343).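 Note: transfected cells were stimulated with diluted bursicon conditioned medium after compound addition.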 Format: functional. (A reporter such as luciferase makes a cellular process visible.)
The target in test [3] is T1, Sphingosine 1-phosphate receptor 4 (Homo sapiens, UniProt O95977).
T1 sequence (O95977 whole entry): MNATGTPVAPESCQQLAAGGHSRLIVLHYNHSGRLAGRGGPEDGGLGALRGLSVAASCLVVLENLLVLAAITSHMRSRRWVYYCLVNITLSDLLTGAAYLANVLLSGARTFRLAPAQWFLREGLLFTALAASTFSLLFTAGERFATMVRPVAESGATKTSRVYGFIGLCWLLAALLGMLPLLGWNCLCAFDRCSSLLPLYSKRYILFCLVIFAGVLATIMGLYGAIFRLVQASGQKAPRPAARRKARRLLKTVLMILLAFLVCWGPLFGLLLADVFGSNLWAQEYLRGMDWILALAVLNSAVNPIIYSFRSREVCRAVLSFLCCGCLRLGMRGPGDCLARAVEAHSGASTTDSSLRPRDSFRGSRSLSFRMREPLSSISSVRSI
Description: Fluorescence dose response cell-based high throughput screening assay for antagonists of the Sphingosine 1-Phosphate Receptor 4 (S1P4). [Related pubchem assays: 1524 (Confirmation in triplicates.), 1510 (Primary screen.)]. The format is functional.

Test [4] can be described thus: A549 cell cytotoxicity, dose response, cytotoxicity control, plate reader, cherry-pick, antagonist series (AID 743412). The format is functional, cell-based.
The target in test [5] is T2, Microphthalmia-associated transcription factor (Homo sapiens, UniProt O75030).
T2 sequence (O75030 whole entry): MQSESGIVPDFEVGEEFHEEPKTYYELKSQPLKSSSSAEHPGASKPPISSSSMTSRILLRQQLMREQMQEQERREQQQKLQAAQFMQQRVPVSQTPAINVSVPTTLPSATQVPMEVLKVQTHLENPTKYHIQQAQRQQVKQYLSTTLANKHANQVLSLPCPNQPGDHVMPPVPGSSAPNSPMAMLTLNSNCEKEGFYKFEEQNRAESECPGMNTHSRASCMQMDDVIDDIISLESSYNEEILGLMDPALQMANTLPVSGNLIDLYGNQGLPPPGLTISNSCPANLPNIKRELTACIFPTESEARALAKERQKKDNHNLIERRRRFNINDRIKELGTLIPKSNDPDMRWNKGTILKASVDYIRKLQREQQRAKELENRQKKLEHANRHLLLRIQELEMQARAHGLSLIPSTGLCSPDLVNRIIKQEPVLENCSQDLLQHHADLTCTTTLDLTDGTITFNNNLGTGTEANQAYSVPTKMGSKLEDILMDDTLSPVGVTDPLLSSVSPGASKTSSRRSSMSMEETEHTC
Nature of the test: TRPM1 promoter luciferase signal decrease, dose response, MITF inhibitor project, cell-based, SK-MEL-5, cherry-picked, set 3 (AID 493073).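 Note: SK-MEL-5 melanoma cells with luciferase driven by the MITF target TRPM1 promoter.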 Format: functional.

The target of test [6] is Sphingosine 1-phosphate receptor 1 (Homo sapiens, UniProt P21453). Format: functional.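 Note: Tango beta-arrestin reporter U2OS cells stimulated with S1P near its EC80; inhibitor potency meaning antagonism of receptor activation by the natural agonist.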
Sphingosine 1-phosphate receptor 1, sequence (P21453 whole entry): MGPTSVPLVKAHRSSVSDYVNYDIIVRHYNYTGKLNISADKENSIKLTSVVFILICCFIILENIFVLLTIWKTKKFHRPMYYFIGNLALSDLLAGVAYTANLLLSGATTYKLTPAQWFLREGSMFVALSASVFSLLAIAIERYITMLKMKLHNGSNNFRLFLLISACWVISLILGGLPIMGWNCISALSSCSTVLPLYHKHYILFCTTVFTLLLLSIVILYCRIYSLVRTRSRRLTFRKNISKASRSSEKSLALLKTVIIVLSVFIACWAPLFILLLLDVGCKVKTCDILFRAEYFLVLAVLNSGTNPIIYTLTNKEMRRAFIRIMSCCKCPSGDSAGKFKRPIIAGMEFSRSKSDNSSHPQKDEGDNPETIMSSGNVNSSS
The nature of test [7]: non-specific cell cytotoxicity, dose response, cytotoxicity control for PAX8 inhibitor project, plate reader, dry powder samples (AID 743021). Format: functional, cell-based.
Test [8] is described as follows: HEK293 cell cytotoxicity, dose response, cytotoxicity control, plate reader, cherry-picked samples (AID 743446). Format: functional, cell-based.
The target of test [9] is T3, Heat shock factor protein 1 (Mus musculus, UniProt P38532).
T3 sequence (P38532 whole entry): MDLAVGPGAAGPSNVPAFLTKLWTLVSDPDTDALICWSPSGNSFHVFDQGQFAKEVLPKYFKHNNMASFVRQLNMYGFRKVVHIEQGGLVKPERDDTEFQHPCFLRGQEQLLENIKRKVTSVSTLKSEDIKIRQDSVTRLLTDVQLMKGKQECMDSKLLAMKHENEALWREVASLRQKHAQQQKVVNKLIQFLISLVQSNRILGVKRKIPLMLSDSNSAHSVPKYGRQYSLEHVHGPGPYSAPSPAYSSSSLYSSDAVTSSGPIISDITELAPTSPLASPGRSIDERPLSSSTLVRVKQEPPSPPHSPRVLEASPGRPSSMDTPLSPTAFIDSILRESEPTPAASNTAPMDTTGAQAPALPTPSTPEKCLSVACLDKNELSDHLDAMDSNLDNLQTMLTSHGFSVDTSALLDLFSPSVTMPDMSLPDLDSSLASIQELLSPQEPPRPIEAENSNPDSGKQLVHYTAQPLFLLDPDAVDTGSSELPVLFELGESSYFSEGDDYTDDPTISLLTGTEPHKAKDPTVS
Nature of the test: inhibition of MG132-induced HSE-luciferase signal, confirmation, cell-based, NIH3T3, luminescence, dose retest (AID 2382).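 Note: NIH3T3 fibroblasts with HSF1-driven luciferase reporter stressed by proteasome inhibitor MG132; luminescence from HSF1-driven luciferase expression after 8 hours of MG132 stress.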 The format is functional.

Test [10] is described as follows: HepG2 cell cytotoxicity, dose response, cytotoxicity control, plate reader, cherry-pick, antagonist series (AID 743416). Format: functional, cell-based.
Test [11] in a line: MC4R antagonists, dose response, counter-screen for LGR2 antagonist project, cell-based, plate reader, cherry pick (AID 743444).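 Note: transfected HEK 293 cells stimulated with alpha-MSH peptide; potency of inhibitors of the alpha-MSH evoked signal.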 The format is functional.
For test [12], the target named is Paired box protein Pax-8 (Homo sapiens, UniProt Q06710). Description: inhibitors of PAX8-driven TPO luciferase reporter, dose response, RMG-I cells, cherry-pick (AID 687027).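 Note: luciferase reporter driven by Pax8 target thyroperoxidase promoter measured by SteadyGlo luminescence.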 Format: functional, cell-based.
Paired box protein Pax-8, sequence (Q06710 whole entry, the tested form may be a part): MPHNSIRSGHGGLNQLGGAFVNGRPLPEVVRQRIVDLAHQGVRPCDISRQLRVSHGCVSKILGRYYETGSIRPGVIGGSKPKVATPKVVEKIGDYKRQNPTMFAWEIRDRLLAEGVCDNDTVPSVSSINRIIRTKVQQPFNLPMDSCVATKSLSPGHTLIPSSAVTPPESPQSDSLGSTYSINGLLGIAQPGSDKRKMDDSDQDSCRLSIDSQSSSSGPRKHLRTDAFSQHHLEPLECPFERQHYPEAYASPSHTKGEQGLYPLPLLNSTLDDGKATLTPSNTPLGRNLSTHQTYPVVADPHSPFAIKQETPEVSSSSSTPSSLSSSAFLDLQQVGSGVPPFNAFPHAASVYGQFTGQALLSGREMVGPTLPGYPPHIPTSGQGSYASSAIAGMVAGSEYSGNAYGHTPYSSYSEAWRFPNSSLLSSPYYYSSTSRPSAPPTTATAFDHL
A short description of test [13]: Fluorescence-based cell-based high throughput dose response assay for inhibitors of the interaction of nucleotide-binding oligomerization domain containing 2 (NOD2) and the receptor-interacting serine-threonine kinase 2 (RIPK2). The format is functional, Homo sapiens. Particulars: Homo sapiens.
A short description of test [14]: Luminescent dose response cell-based high throughput screening assay for inhibitors of the Janus kinase 2 mutant JAK2V617F. [Related pubchem assays: 1446 (Primary screen.), 1521 (Confirmation assay.), 1486 (Counter screen.)]. Format: functional.
Test [15] has as its target T4, Voltage-gated inwardly rectifying potassium channel KCNH2 (Homo sapiens, UniProt Q12809). The settings on record: Potency.
Test [16] addresses Large T antigen (Simian virus 40, UniProt P03070). The format is functional, Betapolyomavirus macacae.
Test [17] can be described thus: cytotoxicity in KRAS-transformed pancreatic duct cells, primary screen, cell-based, fluorescence, HTS (AID 431).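 Note: cell line used: HPDE-C7K.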 Format: functional. The settings on record: Homo sapiens.
Test [18] addresses Ubiquitin carboxyl-terminal hydrolase BAP1 (Homo sapiens, UniProt Q92560). Nature of the test: BAP1 deubiquitinase inhibitors, dose response, biochemical (AID 714). The format is functional.
Test [19] can be described thus: cytotoxicity in HPDE-C7 cells, cell-based, fluorescence, HTS (AID 430). Format: functional. Particulars: Homo sapiens.
Test [20] can be described thus: HEp-2 cell cytotoxicity, dose response, cytotoxicity control for RSV inhibitor project, HTS (AID 2410). The format is functional. Particulars: human respiratory syncytial virus.
The subject of test [21] is Vero. Nature of the test: cells. Format: functional. The settings on record: Chlorocebus sabaeus.
Test [22] deals with Vero. Nature of the test: West Nile virus antiviral activity, cell-based, CPE readout (AID 1621). The settings on record: Chlorocebus sabaeus. The format is functional.
A short description of test [23]: cells.
Test [24] deals with Vero. Nature of the test: cells. The format is functional, cell-based. The settings on record: Chlorocebus sabaeus.
Test [25] concerns the target T4, Voltage-gated inwardly rectifying potassium channel KCNH2. Nature of the test: hERG protection from proarrhythmic block, potency, dose response, cell-based, thallium flux (AID 2121). Format: ADME.

Active and inactive are the calls of the source.

In general, AC50 refers to the concentration at which the activity in the assay is half-maximal. Broadly, the IC50 is the concentration that inhibits the measured activity by half. Usually EC50 stands for the midpoint of the concentration-response curve. Usually CC50 stands for the concentration that lowers cell viability or growth by half.

T4 sequence (Q12809 whole entry): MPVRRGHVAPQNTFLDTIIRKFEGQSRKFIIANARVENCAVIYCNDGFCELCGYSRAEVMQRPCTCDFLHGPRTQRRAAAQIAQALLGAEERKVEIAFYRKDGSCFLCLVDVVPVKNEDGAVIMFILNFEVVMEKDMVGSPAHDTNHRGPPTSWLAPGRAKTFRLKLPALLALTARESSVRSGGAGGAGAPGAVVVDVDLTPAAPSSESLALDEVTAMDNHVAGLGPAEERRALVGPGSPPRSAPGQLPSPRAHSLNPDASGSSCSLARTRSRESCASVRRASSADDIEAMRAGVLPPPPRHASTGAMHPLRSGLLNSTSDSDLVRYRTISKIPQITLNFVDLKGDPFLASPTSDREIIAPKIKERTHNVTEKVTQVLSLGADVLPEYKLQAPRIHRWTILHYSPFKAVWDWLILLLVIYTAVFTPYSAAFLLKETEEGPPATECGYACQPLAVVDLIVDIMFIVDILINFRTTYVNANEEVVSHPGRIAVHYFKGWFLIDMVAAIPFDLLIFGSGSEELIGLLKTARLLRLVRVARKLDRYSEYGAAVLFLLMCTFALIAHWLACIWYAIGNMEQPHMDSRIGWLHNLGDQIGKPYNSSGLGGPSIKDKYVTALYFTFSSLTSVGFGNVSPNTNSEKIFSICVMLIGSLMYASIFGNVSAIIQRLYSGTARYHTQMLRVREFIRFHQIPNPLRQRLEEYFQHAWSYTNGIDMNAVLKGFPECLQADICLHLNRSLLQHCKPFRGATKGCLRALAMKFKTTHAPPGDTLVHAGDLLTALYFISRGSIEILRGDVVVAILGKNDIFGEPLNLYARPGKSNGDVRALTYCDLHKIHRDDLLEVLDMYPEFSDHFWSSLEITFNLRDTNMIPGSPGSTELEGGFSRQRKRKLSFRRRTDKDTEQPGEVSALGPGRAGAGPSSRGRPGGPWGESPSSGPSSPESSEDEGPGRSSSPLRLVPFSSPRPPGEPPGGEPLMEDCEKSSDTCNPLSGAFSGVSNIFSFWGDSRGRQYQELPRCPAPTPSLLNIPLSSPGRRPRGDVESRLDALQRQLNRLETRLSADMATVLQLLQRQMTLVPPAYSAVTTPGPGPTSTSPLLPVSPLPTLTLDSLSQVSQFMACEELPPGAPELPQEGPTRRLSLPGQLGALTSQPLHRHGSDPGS
Ubiquitin carboxyl-terminal hydrolase BAP1, sequence (Q92560 whole entry): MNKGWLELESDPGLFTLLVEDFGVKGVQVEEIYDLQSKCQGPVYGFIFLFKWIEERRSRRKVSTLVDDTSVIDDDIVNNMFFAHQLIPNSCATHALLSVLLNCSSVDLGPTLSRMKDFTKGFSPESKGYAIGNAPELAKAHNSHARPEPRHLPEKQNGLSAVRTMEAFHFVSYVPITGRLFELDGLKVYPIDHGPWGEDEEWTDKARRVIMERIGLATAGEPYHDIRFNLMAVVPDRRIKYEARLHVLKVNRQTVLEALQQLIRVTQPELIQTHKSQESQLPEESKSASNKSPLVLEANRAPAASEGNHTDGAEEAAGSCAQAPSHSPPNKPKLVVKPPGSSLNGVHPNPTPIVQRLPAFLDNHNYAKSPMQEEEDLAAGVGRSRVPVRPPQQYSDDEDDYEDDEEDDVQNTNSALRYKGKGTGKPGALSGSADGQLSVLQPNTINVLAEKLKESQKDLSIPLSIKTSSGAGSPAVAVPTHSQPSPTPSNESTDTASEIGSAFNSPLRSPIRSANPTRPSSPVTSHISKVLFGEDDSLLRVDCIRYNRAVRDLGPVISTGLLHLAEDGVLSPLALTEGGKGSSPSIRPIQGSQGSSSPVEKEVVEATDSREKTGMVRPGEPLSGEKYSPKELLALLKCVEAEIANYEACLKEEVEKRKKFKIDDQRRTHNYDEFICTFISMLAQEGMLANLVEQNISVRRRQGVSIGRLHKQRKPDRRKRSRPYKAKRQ
Large T antigen, sequence (P03070 whole entry): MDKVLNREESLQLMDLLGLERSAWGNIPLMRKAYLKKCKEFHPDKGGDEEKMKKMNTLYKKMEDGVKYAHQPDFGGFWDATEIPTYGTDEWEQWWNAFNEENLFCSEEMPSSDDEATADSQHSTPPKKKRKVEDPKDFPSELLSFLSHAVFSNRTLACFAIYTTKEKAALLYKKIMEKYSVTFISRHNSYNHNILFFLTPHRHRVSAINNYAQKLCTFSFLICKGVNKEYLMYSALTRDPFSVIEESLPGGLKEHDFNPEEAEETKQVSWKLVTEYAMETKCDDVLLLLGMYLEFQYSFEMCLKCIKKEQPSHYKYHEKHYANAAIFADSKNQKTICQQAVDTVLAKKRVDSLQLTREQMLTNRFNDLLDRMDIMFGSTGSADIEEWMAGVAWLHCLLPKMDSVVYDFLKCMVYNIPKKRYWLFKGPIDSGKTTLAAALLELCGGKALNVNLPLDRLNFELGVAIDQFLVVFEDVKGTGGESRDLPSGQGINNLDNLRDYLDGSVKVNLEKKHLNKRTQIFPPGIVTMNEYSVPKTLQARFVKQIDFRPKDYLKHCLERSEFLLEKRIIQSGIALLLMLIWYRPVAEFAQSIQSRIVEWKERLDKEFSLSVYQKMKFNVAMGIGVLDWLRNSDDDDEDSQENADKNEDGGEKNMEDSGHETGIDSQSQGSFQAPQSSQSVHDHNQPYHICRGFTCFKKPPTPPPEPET

`O=c1c(Cl)c(Cl)cnn1-c1ccccc1`: the half-maximal activity concentration (AC50) was 23.8 µM (active) in test [1]; 19 µM (active) in test [2]; 7.52 µM (active) in [4]; 9.54 µM (active) in test [5]; 25.8 µM (active) in [7]; 4.49 µM (active) in test [8]. For the same compound, the AC50 was 14.4 µM (active) in test [10], 16.3 µM (active) in [11] and 6.1 µM (active) in [12]. The figures for the IC50 in test [3], in [6] and in [13] were 1.86 µM (active), 8.71 µM (active) and 49.7 µM (inactive), respectively. For the same compound, the EC50 in test [9] was 5.45 µM (active).

`N#C/C(=C\c1ccc(O)c(O)c1)C(=O)NCCCc1ccccc1`: the half-maximal inhibitory concentration (IC50) in test [14] is 1.7 µM (active); in [16], 21 µM (active). Moreover, in test [15], the half-maximal activity concentration (AC50) was 15.8 µM (inconclusive).

Turning to `Cc1sc(NC(=O)CSc2nnc3scc(-c4ccccc4)n23)c(C#N)c1C`, the EC50 in [17] was 8.96 µM (active); in test [19], 8.93 µM (active). The IC50 in [18] is on record as > 50 µM (not active).

Regarding `Cc1c(NC(=O)COC(=O)c2cc(-c3ccc(-c4ccccc4)cc3)nc3ccccc23)c(=O)n(-c2ccccc2)n1C`, the values for the CC50 in [20] and in test [21] were 2.93 µM (active) and 11.5 µM (active), respectively. Also, the values for the IC50 in test [22], in test [23] and in [24] were 21.1 µM (active), 0.53 µM (active) and 2.09 µM (active), respectively.

On to `O=C(/C=C/c1ccccc1)CC(=O)c1ccccc1O`, for which, in [25], the 50% effective concentration (EC50) is 2.67 µM (active).
